Measurements taken from patent US6054460A, “Anticonvulsive and antiallergic/antiasthmatic pyrazolo-[3,4-d]pyrimidines, and process for preparing” (Arzneimittelwerk Dresden GmbH, priority 1998, dated 2000).
Read-outs that look alike come from different tables or passages of the source.

Experiments:
maximal electroshock [1] = experiment: Maximal electroshock (MES), anticonvulsive action, mouse i.p.; format: in vivo
Text: (§1) ^3) Mouse i.p.: MES = maximal electroshock, PTZ = s.c. pentetrazole
(§2) ^5) In % of the protected animals; n.t. = not tested

s.c. pentetrazole = s.c. pentetrazole (PTZ), anticonvulsive action, mouse i.p.; format: in vivo; conditions: ip, read-out: Action, PTZ (protected animals)
Text: as §1, §2

[2] = Octanol/water partition coefficient
adenosine receptor (A3) = biological target: T1, adenosine receptor (A3) (Homo sapiens, UniProt P0DMS8); experiment: Binding at the adenosine receptor (A3) and selectivities; conditions: for Ki: adenosine A3 receptor; for selectivity A3/A1: ratio A3/A1; for selectivity A3/A2: ratio A3/A2
T1 sequence (P0DMS8 1-318): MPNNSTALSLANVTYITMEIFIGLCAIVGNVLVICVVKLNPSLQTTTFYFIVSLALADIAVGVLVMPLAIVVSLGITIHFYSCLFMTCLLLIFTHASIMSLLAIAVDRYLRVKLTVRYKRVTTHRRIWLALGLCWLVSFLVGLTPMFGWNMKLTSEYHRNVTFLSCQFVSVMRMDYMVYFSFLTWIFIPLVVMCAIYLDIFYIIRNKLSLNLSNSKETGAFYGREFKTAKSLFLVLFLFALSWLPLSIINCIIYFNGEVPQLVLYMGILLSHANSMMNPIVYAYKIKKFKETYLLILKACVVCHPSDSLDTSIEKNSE

maximal electroshock [3] = experiment: Maximal electroshock, anticonvulsive action, rat p.o.; format: in vivo; conditions: for ED50: po, maximal electroshock
Text: Week-blad, Sc. Ed. 14, 132 (1992) and Antiepileptic Drugs, Third Ed., Raven Press, New York 1989.
(§3) Analogous results were obtained for the orally administered tests.

in vivo = conditions: rat, po
Text: as §3

[4] = tested on: eosinophilic granulocytes; experiment: Inhibition of infiltration of eosinophilic granulocytes into the lungs (BAL, ovalbumin-challenged guinea-pigs, oral); format: in vivo, guinea-pig (Dunkin Hartley Shoe); conditions: guinea-pig, 100 mg/kg, 2 hours before allergen challenge
Procedure: The compounds of the present invention were tested in vivo for antiasthmatic action after oral administration to male guinea-pigs, and the inhibition of the infiltration of the eosinophilic granulocytes into the lungs was determined. Male guinea-pigs (Dunkin Hartley Shoe) weighing 200-250 g were actively sensitized by an s.c. injection of ovalbumin (10 μg+1 mg of aluminum hydroxide) and boosted 2 weeks later. One week after boosting with ovalbumin, the animals were challenged with an aerosol of 0.5% strength ovalbumin solution for 20-30 sec. 24 hours later, a bronchoalveolar lavage (BAL) was carried out in the animals under urethane anaesthesia using 2×5 ml of saline solution. The lavage fluid was collected and centrifuged at 400×g for 10 min and the cell pellets were suspended in 1 ml of saline solution. The eosinophilic granulocytes were counted microscopically in a Neubauer chamber. A Becton Dickinson test kit (No. 5877) for eosinophils was used for staining. The test kit used phloxine B as a selective stain for eosinophils. The eosinophils in the BAL were counted for each animal and the eosinophils were calculated in millions/animal. The test substances were administered orally 2 hours before allergen challenge.
The percentage inhibition of eosinophilia of the group treated with substance is calculated according to the following formula:
(A-C)-(B-C)/(A-C)×100=% inhibition […]

[5] = ip, mouse i.p., 100 mg/kg, read-out: Action, MES (protected animals)
[6] = ip, mouse i.p., read-out: Action, MES (protected animals)

Row | Molecule | logP [2] | Ki (adenosine receptor (A3)) | selectivity A3/A1 (adenosine receptor (A3)) | selectivity A3/A2 (adenosine receptor (A3)) | responders at 100 mg/kg (s.c. pentetrazole; mouse i.p., 100 mg/kg) | responders at 100 mg/kg (maximal electroshock [1]; [5]) | responders at 30 mg/kg (maximal electroshock [1]; [6]) | other results
1 | 2-benzyl-pyrazolo-[3,4-d]-pyrimidine [reference compound] | – | – | – | – | – | – | – | Action, MES (protected animals) (maximal electroshock [1]; mouse i.p., 100 mg/kg): 100%; Log P (octanol/water partition coefficient): 0.40
2 | NC(=O)N1c2ccccc2C=Cc2ccccc21 [Carbamazepine, reference compound] | – | – | – | – | 0% | 100% | – | –
3 | O=c1[nH]cnc2nn(Cc3ccccc3F)cc12 [Example 1, 2-(2-fluorobenzyl)pyrazolo[3,4-d]pyrimidin-4(5H)-one] | 0.2 | 3.2 µM | 0.7 | 0.01 | 100% | – | 100% | –
4 | O=c1[nH]cnc2nn(Cc3ccccc3Cl)cc12 [Example 2, 2-(2-chlorobenzyl)pyrazolo[3,4-d]pyrimidin-4(5H)-one] | 1.01 | 2 µM | 0.02 | 0.06 | 60% | 100% | – | ED50 (maximal electroshock [3]): 32 mg/kg; TD50 (in vivo): > 250 mg/kg
5 | O=c1[nH]cnc2nn(Cc3ccccc3Br)cc12 [Example 3, 2-(2-bromobenzyl)pyrazolo[3,4-d]pyrimidin-4(5H)-one] | 0.56 | 0.43 µM | 0.008 | 0.005 | – | 100% | – | responders at 300 mg/kg (s.c. pentetrazole; mouse i.p.): 80%; % inhibition of infiltration of eosinophilic granulocytes into the lung [4]: 74%
6 | O=c1[nH]cnc2nn(Cc3ccccc3C(F)(F)F)cc12 [Example 5, 2-(2-trifluoromethylbenzyl)pyrazolo[3,4-d]pyrimidin-4(5H)-one] | 1.08 | 0.79 µM | 0.002 | 0.007 | – | – | 100% | responders at 30 mg/kg (s.c. pentetrazole; mouse i.p.): 20%
7 | Cc1ccccc1Cn1cc2c(=O)[nH]cnc2n1 [Example 6, 2-(2-methylbenzyl)pyrazolo[3,4-d]pyrimidin-4(5H)-one] | 0.75 | 4 µM | 0.01 | 0.08 | 20% | – | 100% | –
8 | O=c1[nH]cnc2nn(Cc3cccc(C(F)(F)F)c3)cc12 [Example 7, 2-(3-trifluoromethylbenzyl)pyrazolo[3,4-d]pyrimidin-4(5H)-one] | 1 | – | – | – | 60% | – | 100% | –
9 | O=c1[nH]cnc2nn(Cc3cc4c(cc3Cl)OCO4)cc12 [Example 13, 2-(2-chloro-4,5-methylenedioxybenzyl)pyrazolo[3,4-d]pyrimidin-4(5H)-one] | 1.21 | 8.3 µM | 0.4 | 0.02 | – | 30% | – | –
10 | S=c1[nH]cnc2nn(Cc3ccccc3Cl)cc12 [Example 15, 2-(2-chlorobenzyl)pyrazolo[3,4-d]pyrimidine-4(5H)-thione] | 1.54 | 0.5 µM | 0.007 | < 0.001 | 60% | 100% | – | ED50 (maximal electroshock [3]): 12 mg/kg; anticonvulsive action, in words (maximal electroshock [3]; qualitative): strongly anticonvulsive; TD50 (in vivo): > 460 mg/kg; therapeutic breadth, in words (in vivo): great therapeutic breadth
11 | Fc1cccc(F)c1Cn1cc2c(=S)[nH]cnc2n1 [Example 19, 2-(2,6-difluorobenzyl)pyrazolo[3,4-d]pyrimidine-4(5H)-thione] | 1.57 | – | – | – | 60% | – | 100% | –
12 | CCCC(CCC)C(=O)O [Valproate, reference compound] | – | – | – | – | – | – | – | responders at 100 mg/kg (s.c. pentetrazole; Mus musculus): 30%; responders at 100 mg/kg (maximal electroshock [1]; Mus musculus, ip, read-out: Action, MES (protected animals)): 0%

Second part, led by results:

Row | logP [2] | Ki (adenosine receptor (A3)) | selectivity A3/A1 (adenosine receptor (A3)) | selectivity A3/A2 (adenosine receptor (A3)) | Molecule | responders at 100 mg/kg (s.c. pentetrazole; mouse i.p., 100 mg/kg) | responders at 100 mg/kg (maximal electroshock [1]; [5]) | responders at 30 mg/kg (maximal electroshock [1]; [6]) | other results
13 | 0.74 | 0.49 µM | 0.008 | < 0.0005 | O=c1[nH]cnc2nn(Cc3ccccc3I)cc12 [Example 4, 2-(2-iodobenzyl)pyrazolo[3,4-d]pyrimidin-4(5H)-one] | – | – | – | responders at 300 mg/kg (maximal electroshock [1]; ip, mouse i.p., 300 mg/kg, read-out: Action, MES (protected animals)): 100%
14 | 0.18 | – | – | – | O=c1[nH]cnc2nn(Cc3c(F)cccc3F)cc12 [Example 8, 2-(2,6-difluorobenzyl)pyrazolo[3,4-d]pyrimidin-4(5H)-one] | – | – | 100% | responders at 30 mg/kg (s.c. pentetrazole; mouse i.p.): 40%
15 | 0.93 | 1 µM | 0.002 | 0.004 | O=c1[nH]cnc2nn(Cc3c(F)cccc3Cl)cc12 [Example 9, 2-(2-chloro-6-fluorobenzyl)pyrazolo[3,4-d]pyrimidin-4(5H)-one] | – | – | 100% | –
16 | 1.16 | 1.6 µM | 0.02 | 0.02 | O=c1[nH]cnc2nn(Cc3c(Cl)cccc3Cl)cc12 [Example 10, 2-(2,6-dichlorobenzyl)pyrazolo[3,4-d]pyrimidin-4(5H)-one] | – | 60% | – | –
17 | 1.68 | 0.71 µM | 0.04 | 0.01 | O=c1[nH]cnc2nn(Cc3ccc(Cl)cc3Cl)cc12 [Example 11, 2-(2,4-dichlorobenzyl)pyrazolo[3,4-d]pyrimidin-4(5H)-one] | 20% | 100% | – | –
18 | 0.62 | 9.8 µM | 0.5 | 0.01 | COc1ccc(Cn2cc3c(=O)[nH]cnc3n2)cc1 [Example 12, 2-(4-methoxybenzyl)pyrazolo[3,4-d]pyrimidin-4(5H)-one] | – | 15% | – | responders at 300 mg/kg (s.c. pentetrazole; mouse i.p.): 40%
19 | 1.2 | 0.34 µM | 0.005 | < 0.001 | S=c1[nH]cnc2nn(Cc3ccccc3Br)cc12 [Example 16, 2-(2-bromobenzyl)pyrazolo[3,4-d]pyrimidine-4(5H)-thione] | – | 30% | – | –
20 | 1.4 | 0.5 µM | 0.008 | < 0.001 | S=c1[nH]cnc2nn(Cc3ccccc3I)cc12 [Example 17, 2-(2-iodobenzyl)pyrazolo[3,4-d]pyrimidine-4(5H)-thione] | – | 30% | – | –
21 | 1.6 | – | – | – | FC(F)(F)c1ccccc1Cn1cc2c(=S)[nH]cnc2n1 [Example 18, 2-(2-trifluoromethylbenzyl)pyrazolo[3,4-d]pyrimidine-4(5H)-thione] | 80% | 100% | – | –
